According to publication PMC8843100, “Development of newly synthesised quinazolinone-based CDK2 inhibitors with potent efficacy against melanoma” (Journal of Enzyme Inhibition and Medicinal Chemistry, 2022):

Key:
Experiment in all cases: NCI-60 single dose screen, sulforhodamine B
Assay type in all cases: cell-based, human
[1] = tested on: HT29; conditions: Colon cancer HT29; single dose 10^−5 M
Protocol: (§1) In this research, all of the newly synthesised quinazolinones were subjected to in vitro anticancer screening by the National Cancer Institute (USA) against 60 different human cell lines including leukaemia, non-small cell lung cancer, colon cancer, CNS cancer, melanoma, ovarian cancer, renal cancer, prostate cancer, and breast cancer. The tested compounds were evaluated at a single dose (10^−5 M). […] Regarding the benzenesulfonamide counterparts, the introduction of an electron-withdrawing group on the benzenesulfonamide moiety increased the inhibitory activity on the glioblastoma cell line SNB-75 as depicted by the chloro derivative 5c (GI% = 63.09) which was higher than that of the unsubstituted derivative 5a (GI% = 40.06) and the methyl derivative 5b (GI% = 33.03).
(§2) 1. Cytotoxicity screening against a panel of 60 human tumor cell lines
(§3) All the compounds were selected for NCI-60 Human Tumor Cell Lines Screen by the Developmental Therapeutics Program (DTP) at the National Cancer Institute (NCI), Maryland, USA. The operation of this screen utilizes 60 different human tumor cell lines, representing leukemia, non-small-cell lung cancer, colon cancer, CNS cancer, melanoma, ovarian cancer, renal cancer, prostate cancer and breas t cancer.
(§4) The compounds were supplied as dry powder and a single concentration is tested in all 60 cell lines at a single dose of 10 µM solution in dimethyl sulfoxide (DMSO) using Sulforhodamine B assay. Briefly, cells are seeded in 96 well plates at an appropriate density and incubated for 1 day. After 1 day, some of the plates are processed to determine the density time zero. To the remaining plates, compounds are added at 10 µM concentration. Plates are incubated a further 2 days, then fixed and staine d with sulphorhodamine B. Growth inhibition is calculated relative to cells without drug treatment and the time zero control. The use of a time zero control allows the determination of cell kill as well as net growth inhibition. […]

[2] = tested on: ACHN; conditions: Renal cancer ACHN; single dose 10^−5 M
Protocol: as §1, §2, §3, §4

[3] = tested on: SN12C; conditions: Renal cancer SN12C; single dose 10^−5 M
Protocol: as §1, §2, §3, §4

[4] = tested on: M14; conditions: Melanoma M14; single dose 10^−5 M
Protocol: as §1, §2, §3, §4

[5] = tested on: NCI-H522; conditions: Non-small cell lung cancer NCI-H522; single dose 10^−5 M
Protocol: as §1, §2, §3, §4

[6] = tested on: K-562; conditions: Leukaemia K-562; single dose 10^−5 M
Protocol: as §1, §2, §3, §4

[7] = tested on: KM12; conditions: Colon cancer KM12; single dose 10^−5 M
Protocol: as §1, §2, §3, §4

[8] = tested on: PC-3; conditions: Prostate cancer PC-3; single dose 10^−5 M
Protocol: as §1, §2, §3, §4

[9] = tested on: LOX IMVI; conditions: Melanoma LOX IMVI; single dose 10^−5 M
Protocol: as §1, §2, §3, §4

[10] = tested on: OVCAR-5; conditions: Ovarian cancer OVCAR-5; single dose 10^−5 M
Protocol: as §1, §2, §3, §4

[11] = tested on: OVCAR-8; conditions: Ovarian cancer OVCAR-8; single dose 10^−5 M
Protocol: as §1, §2, §3, §4

[12] = tested on: SW-620; conditions: Colon cancer SW-620; single dose 10^−5 M
Protocol: as §1, §2, §3, §4

[13] = tested on: U251; conditions: CNS cancer U251; single dose 10^−5 M
Protocol: as §1, §2, §3, §4

[14] = tested on: A549/ATCC; conditions: Non-small cell lung cancer A549/ATCC; single dose 10^−5 M
Protocol: as §1, §2, §3, §4

[15] = tested on: SR; conditions: Leukaemia SR; single dose 10^−5 M
Protocol: as §1, §2, §3, §4

[16] = tested on: MDA-MB-435; conditions: Melanoma MDA-MB-435; single dose 10^−5 M
Protocol: as §1, §2, §3, §4

[17] = tested on: MOLT-4; conditions: Leukaemia MOLT-4; single dose 10^−5 M
Protocol: as §1, §2, §3, §4

[18] = tested on: SNB-75; conditions: CNS cancer SNB-75; single dose 10^−5 M
Protocol: as §1, §2, §3, §4

[19] = tested on: HCC-2998; conditions: Colon cancer HCC-2998; single dose 10^−5 M
Protocol: as §1, §2, §3, §4

[20] = tested on: TK-10; conditions: Renal cancer TK-10; single dose 10^−5 M
Protocol: as §1, §2, §3, §4

[21] = tested on: HCT-116; conditions: Colon cancer HCT-116; single dose 10^−5 M
Protocol: as §1, §2, §3, §4

[22] = tested on: NCI-H226; conditions: Non-small cell lung cancer NCI-H226; single dose 10^−5 M
Protocol: as §1, §2, §3, §4

[23] = tested on: NCI-H322M; conditions: Non-small cell lung cancer NCI-H322M; single dose 10^−5 M
Protocol: as §1, §2, §3, §4

[24] = tested on: HCT-15; conditions: Colon cancer HCT-15; single dose 10^−5 M
Protocol: as §1, §2, §3, §4

[25] = tested on: T-47D; conditions: Breast cancer T-47D; single dose 10^−5 M
Protocol: as §1, §2, §3, §4

[26] = tested on: DU-145; conditions: Prostate cancer DU-145; single dose 10^−5 M
Protocol: as §1, §2, §3, §4

[27] = tested on: SK-MEL-28; conditions: Melanoma SK-MEL-28; single dose 10^−5 M
Protocol: as §1, §2, §3, §4

[28] = tested on: SNB-19; conditions: CNS cancer SNB-19; single dose 10^−5 M
Protocol: as §1, §2, §3, §4

[29] = tested on: SF-295; conditions: CNS cancer SF-295; single dose 10^−5 M
Protocol: as §1, §2, §3, §4

[30] = tested on: RPMI-8226; conditions: Leukaemia RPMI-8226; single dose 10^−5 M
Protocol: as §1, §2, §3, §4

[31] = tested on: MDA-MB-231/ATCC; conditions: Breast cancer MDA-MB-231/ATCC; single dose 10^−5 M
Protocol: as §1, §2, §3, §4

[32] = tested on: NCI-H23; conditions: Non-small cell lung cancer NCI-H23; single dose 10^−5 M
Protocol: as §1, §2, §3, §4

Row | SMILES | GI% at 10^−5 M [1] | GI% at 10^−5 M [2] | GI% at 10^−5 M [3] | GI% at 10^−5 M [4] | GI% at 10^−5 M [5] | GI% at 10^−5 M [6] | GI% at 10^−5 M [7] | GI% at 10^−5 M [8] | GI% at 10^−5 M [9] | GI% at 10^−5 M [10] | GI% at 10^−5 M [11] | GI% at 10^−5 M [12] | GI% at 10^−5 M [13] | GI% at 10^−5 M [14] | GI% at 10^−5 M [15] | GI% at 10^−5 M [16] | GI% at 10^−5 M [17] | GI% at 10^−5 M [18] [%] | GI% at 10^−5 M [19] | GI% at 10^−5 M [20] | further results
1 | O=c1c2ccccc2nc(COc2ccccc2)n1NS(=O)(=O)c1ccccc1 [Compound 5a, N-(4-oxo-2-(phenoxymethyl)quinazolin-3(4H)-yl)benzenesulfonamide] | – (– means GI < 10%) | 11.23% | 11.46% | – (– means GI < 10%) | – (– means GI < 10%) | – (– means GI < 10%) | – (– means GI < 10%) | – (– means GI < 10%) | – (– means GI < 10%) | – (– means GI < 10%) | – (– means GI < 10%) | – (– means GI < 10%) | – (– means GI < 10%) | – (– means GI < 10%) | – (– means GI < 10%) | – (– means GI < 10%) | – (– means GI < 10%) | 40.06 | – (– means GI < 10%) | – (– means GI < 10%) | GI% at 10^−5 M [21]: – (– means GI < 10%); GI% at 10^−5 M [22]: – (– means GI < 10%); GI% at 10^−5 M [23]: – (– means GI < 10%); GI% at 10^−5 M [24]: – (– means GI < 10%); GI% at 10^−5 M [25]: – (– means GI < 10%); GI% at 10^−5 M [26]: – (– means GI < 10%); GI% at 10^−5 M [27]: – (– means GI < 10%); GI% at 10^−5 M [28]: – (– means GI < 10%); GI% at 10^−5 M [29]: – (– means GI < 10%); GI% at 10^−5 M [30]: – (– means GI < 10%); GI% at 10^−5 M [31]: 13.77%; GI% at 10^−5 M [32]: 11.73%
2 | Cc1ccc(S(=O)(=O)Nn2c(COc3ccccc3)nc3ccccc3c2=O)cc1 [Compound 5b, 4-methyl-N-(4-oxo-2-(phenoxymethyl)quinazolin-3(4H)-yl)benzenesulfonamide] | – (– means GI < 10%) | 15% | – (– means GI < 10%) | – (– means GI < 10%) | – (– means GI < 10%) | – (– means GI < 10%) | – (– means GI < 10%) | – (– means GI < 10%) | – (– means GI < 10%) | – (– means GI < 10%) | – (– means GI < 10%) | – (– means GI < 10%) | – (– means GI < 10%) | – (– means GI < 10%) | – (– means GI < 10%) | – (– means GI < 10%) | – (– means GI < 10%) | 33.03 | – (– means GI < 10%) | 23.64% | GI% at 10^−5 M [21]: – (– means GI < 10%); GI% at 10^−5 M [22]: – (– means GI < 10%); GI% at 10^−5 M [23]: – (– means GI < 10%); GI% at 10^−5 M [24]: – (– means GI < 10%); GI% at 10^−5 M [25]: – (– means GI < 10%); GI% at 10^−5 M [26]: 15.73%; GI% at 10^−5 M [27]: – (– means GI < 10%); GI% at 10^−5 M [28]: – (– means GI < 10%); GI% at 10^−5 M [29]: – (– means GI < 10%); GI% at 10^−5 M [30]: – (– means GI < 10%); GI% at 10^−5 M [31]: 10.94%; GI% at 10^−5 M [32]: 11.47%
3 | O=c1c2ccccc2nc(COc2ccccc2)n1NS(=O)(=O)c1ccc(Cl)cc1 [Compound 5c, 4-chloro-N-(4-oxo-2-(phenoxymethyl)quinazolin-3(4H)-yl)benzenesulfonamide] | 20.01% | – (– means GI < 10%) | 23.41% | 25.84% | 30.63% | 52.75% | 44.77% | 17.26% | 16.40% | – (– means GI < 10%) | – (– means GI < 10%) | 30.94% | 12.24% | 14.05% | 42.42% | 94.53% | 30.51% | 63.09 | 22.36% | – (– means GI < 10%) | GI% at 10^−5 M [21]: 16.40%; GI% at 10^−5 M [22]: 17.00%; GI% at 10^−5 M [23]: 17.13%; GI% at 10^−5 M [24]: 45.60%; GI% at 10^−5 M [25]: 25.18%; GI% at 10^−5 M [26]: – (– means GI < 10%); GI% at 10^−5 M [27]: 12.91%; GI% at 10^−5 M [28]: 20.21%; GI% at 10^−5 M [29]: – (– means GI < 10%); GI% at 10^−5 M [30]: – (– means GI < 10%); GI% at 10^−5 M [31]: 32.6%; GI% at 10^−5 M [32]: 17.19%
4 | COc1cc(C=Nn2c(COc3ccccc3)nc3ccccc3c2=O)ccc1O [Compound 6a, 3-((4-hydroxy-3-methoxybenzylidene)amino)-2-(phenoxymethyl)quinazolin-4(3H)-one] | – (– means GI < 10%) | – (– means GI < 10%) | 10.37% | – (– means GI < 10%) | 16.82% | – (– means GI < 10%) | – (– means GI < 10%) | – (– means GI < 10%) | – (– means GI < 10%) | – (– means GI < 10%) | – (– means GI < 10%) | – (– means GI < 10%) | – (– means GI < 10%) | – (– means GI < 10%) | – (– means GI < 10%) | – (– means GI < 10%) | – (– means GI < 10%) | 13.12 | – (– means GI < 10%) | – (– means GI < 10%) | GI% at 10^−5 M [21]: – (– means GI < 10%); GI% at 10^−5 M [22]: – (– means GI < 10%); GI% at 10^−5 M [23]: – (– means GI < 10%); GI% at 10^−5 M [24]: – (– means GI < 10%); GI% at 10^−5 M [25]: – (– means GI < 10%); GI% at 10^−5 M [26]: – (– means GI < 10%); GI% at 10^−5 M [27]: – (– means GI < 10%); GI% at 10^−5 M [28]: – (– means GI < 10%); GI% at 10^−5 M [29]: – (– means GI < 10%); GI% at 10^−5 M [30]: – (– means GI < 10%); GI% at 10^−5 M [31]: 10.92%; GI% at 10^−5 M [32]: – (– means GI < 10%)
